The text below walks through data of patent publication US20230115208A1, “RING-FUSED THIAZOLINO 2-PYRIDONES, METHODS FOR PREPARATION THEREOF AND THEIR USE IN THE TREATMENT AND/OR PREVENTION OF TUBERCULOSIS” (QURETECH BIO AB, priority 2016, published 2023).

SMILES strings stand for the structures. Like-named read-outs stand apart in the source and are kept apart here.

The subject of assay [1] is Mycobacterium tuberculosis. It is filed as cell-based.
The test system of assay [2] is Mycobacterium tuberculosis. Type of assay: cell-based. This is another data set of the same source.
In assay [3] the test system is Erdman Wild-Type Mycobacterium tuberculosis. Type of assay: cell-based.
Another assay deals with katGFSAA6 Mtb. Kind of assay: Lawn of katGFSAA6 Mtb plated on agar (FIG. 9c-9f). It is filed as cell-based, Mycobacterium tuberculosis.
The test system of another assay is Mtb. As to conditions: cited from earlier work.
Assay [4] has as its system Mycobacterium tuberculosis Erdman. Kind of assay: Biofilm inhibition of Mycobacterium tuberculosis (ocular inspection). Type of assay: cell-based. The following applies: for inhibition at 10 µM: read-out: Average % Inhibition at 10 μM; for inhibition at 25 µM: read-out: Average % Inhibition at 25 μM; for minimal effective concentration: concentration at which full biofilm inhibition took place, replicate determinations in one cell.

The mark [5] stands for this setting: biofilm inhibition, 10 μM, average of three or more measurements (100/50/0% scoring).
Where [6] appears, read: biofilm inhibition, 25 μM, average of three or more measurements (100/50/0% scoring).
[7] abbreviates: biofilm inhibition, average of three or more measurements (100/50/0% scoring).

As for `O=C(O)[C@@H]1CSc2c(C3CC3)c(Cc3cccc4ccccc34)cc(=O)n21` [(3R)-7-Cyclopropyl-6-[(1-naphthyl)methyl]-4-oxo-1-thia-3a-aza-3-indancarboxylic acid], the “eradication of Mycobacterium tuberculosis (conclusion)” value in assay [1] is recorded as “did not eradicate”.

In the case of `NNC(=O)c1ccncc1` [INH, isonicotinylhydrazide, reference compound], in assay [2] ([…], Example 1 50 microM, Example 19 25 microM), the “tuberculosis bacteria detected (ratio of CFU treated/untreated)” value was “tuberculosis bacteria remained”. In addition, the “eradication of Mycobacterium tuberculosis (conclusion)” value in assay [2] (conclusions from FIG. 5 and FIG. 6 experiments) is “did not eradicate”. In assay [3], the “Mtb growth as measured by ODλ600” value is reported as “completely inhibited” and the “culturable bacteria remaining (CFU)” value is recorded as “several thousand”. Moreover, in the assay with katGFSAA6 Mtb (agar plates containing INH, Example 1 or combination), the “growth of katGFSAA6 strain on agar” value is on record as “able to grow”. The MIC in the assay with Mtb was 0.02 to 0.06 µg/mL.

On to `O=C(O)[C@@H]1CSc2c(C3CC3)c(Cc3cccc4ccccc34)cc(=O)n21` [Example 1, (3R)-7-Cyclopropyl-6-[(1-naphthyl)methyl]-4-oxo-1-thia-3a-aza-3-indancarboxylic acid], for which, in assay [4], the inhibition at 10 µM worked out at 100% and the inhibition at 25 µM amounted to 100%. For the same molecule, in assay [3], the doubling time is 52 h and the “fold less Mtb in the culture as compared to controls (CFU)” value is 7.6 fold. In the assay with katGFSAA6 Mtb, the “growth of katGFSAA6 strain on agar” value was “able to grow”.

Take `O=C(O)[C@H]1CSc2c(C3CC3)c(Cc3cccc4ccccc34)cc(=O)n21` [Example 5, (3S)-7-Cyclopropyl-6-[(1-naphthyl)methyl]-4-oxo-1-thia-3a-aza-3-indancarboxylic acid]: in assay [4] (setting [5]), the inhibition at 10 µM was found to be 100%. In assay [4] (setting [6]), the inhibition at 25 µM was 100%. Moreover, the inhibition at 50 µM in assay [4] (setting [7]) was determined as 100%. In assay [4], this molecule had a minimal effective concentration of 5 µM.

`O=C(O)c1c(-c2ccccc2)sc2c(C3CC3)c(Cc3cccc4ccccc34)cc(=O)n12` [Example 13, 5-Cyclopropyl-4-[(1-naphthyl)methyl]-2-oxo-8-phenyl-7-thia-1-azabicyclo[4.3.0]nona-3,5,8-triene-9-carboxylic acid]: the inhibition at 10 µM in assay [4] (setting [5]) is 62%. In assay [4] (setting [6]), the inhibition at 25 µM came out at 75%. The molecule further registered an inhibition at 50 µM in assay [4] (setting [7]) of 100%. In assay [4], this molecule gave a minimal effective concentration of 50 µM.

For the molecule `O=C(O)[C@@H]1[C@@H](c2ccccc2)Sc2c(C3CC3)c(Cc3cccc4ccccc34)cc(=O)n21` [Example 34, (2R,3R)-7-Cyclopropyl-6-[(1-naphthyl)methyl]-4-oxo-2-phenyl-1-thia-3a-aza-3-indancarboxylic acid], in assay [4] (setting [7]), 50 µM produced 25% inhibition. The molecule also gave a minimal effective concentration in assay [4] of 30 µM.

In general, MIC refers to the smallest concentration in the dilution series that meets the test's criterion for growth inhibition. In general, inhibition refers to the share of the control response that was lost under treatment. Broadly, the minimal effective concentration is the smallest amount tested that counted as effective. Read a high minimal effective concentration as a need for much substance.
